Assay results from US20240418717A1, “APPARATUS AND METHOD FOR ANALYZING PLATELET AGGREGATION” (MEDTRONIC VASCULAR, INC., priority 2020, published 2024).

How the values were obtained:
[1] = system: platelets in platelet rich plasma (PRP); test: Platelet aggregation by washer (disk) minimum position in platelet rich plasma; type: cell-based; conditions: platelet rich plasma containing 1.5 U/mL heparin; 20 micromolar ADP; relative to absence of ADP; FIG. 8
From the text: Platelet rich plasma (PRP) containing 1.5 U/mL heparin was filled into a six-channel cartridge similar to cartridge 200 depicted in and described regarding FIG. 7 for use with an analyzer similar to analyzer 300 depicted in and described regarding FIG. 6. The analyzer and cartridge were similar to those described in U.S. Pat. Nos. 5,629,209 and 6,613,286.
One chamber of the cartridge contained ADP such that the concentration in the chamber was 20 micromolar after introduction of the sample. Another chamber included no ADP. No other clot enhancing agent was in the sample or chamber of the cartridge. The chambers included a ferromagnetic washer. The cartridge was inserted in the analyzer before PRP sample fill. Immediately after the sample introduction, the test began, and platelet aggregation was analyzed.
The analyzer was programmed to hold the washer (disk) at the top of the chamber for 90 to 95% of the test cycle (a test cycle is the time sum of lift time and drop time), which was about 4.5 seconds for a test cycle of 5 seconds, to ensure platelets in the test sample aggregated and accumulated at the bottom of the chamber. The washer was allowed to drop (electromagnet deactivated), and the washer minimum position was determined by the proximity sensor (e.g., sensor 30 depicted in and described regarding FIGS. 2-5) in the presence and absence of ADP.

platelet poor plasma = test: Platelet aggregation by washer (disk) minimum position in platelet poor plasma; type: cell-based; conditions: platelet poor plasma containing 1.5 U/mL heparin; 20 micromolar ADP; FIG. 9
From the text: Platelet poor plasma […] containing 1.5 U/mL heparin was filled into a six-channel cartridge similar to cartridge 200 depicted in and described regarding FIG. 7 for use with a blood analyzer similar to analyzer 300 depicted and described regarding FIG. 6. The analyzer and cartridge were similar to those described in U.S. Pat. Nos. 5,629,209 and 6,613,286. A chamber of the cartridge contained ADP such that the concentration in the chamber was 20 micromolar after introduction of the sample. No other clot enhancing agent was in the sample or chamber of the cartridge. The chambers included a ferromagnetic washer. Following introduction of the sample after the cartridge was inserted into the blood analyzer, the test was started, and platelet aggregation was analyzed. The blood analyzer was programmed to hold the washer (disk) at the top of the chamber for 90 to 95% of the test cycle (a test cycle is the time sum of lift time and drop time), which was about 4.5 seconds for a test cycle of 5 seconds, to ensure platelets in the test sample aggregated and accumulated at the bottom of the chamber. The washer was allowed to drop (electromagnet deactivated), and the washer minimum position was determined.

## Nc1ncnc2c1ncn2[C@@H]1O[C@H](COP(=O)(O)OP(=O)(O)O)[C@@H](O)[C@H]1O [ADP, adenosine diphosphate]
[1]
  washer (disk) minimum position (platelet aggregation): increased
Platelet poor plasma
  disk minimal position (platelet aggregation): did not increase
